Test results as given in the NIST ThermoML archive (doi:10.1021/je501041r).
Numbers after ± are expanded uncertainties.

Assay: xn = mol fraction of the nth substance listed
Settings: 101 kPa, Liquid; for viscosity: Capillary tube (Ostwald / Ubbelohde) method; for mass density: Vibrating tube method

CCCCCCO [hexan-1-ol] + CC(C)CC(C)(C)C
Settings	mass density [kg/m3]	viscosity [mPa·s]
298.15 K, x2 = 0	815.3 ± 2	4.605 ± 0.056
298.15 K, x2 = 0.1001	799.99 ± 2	3.428 ± 0.042
298.15 K, x2 = 0.2	785 ± 2	2.565 ± 0.031
298.15 K, x2 = 0.3001	770.65 ± 2	1.933 ± 0.023
298.15 K, x2 = 0.4	756.92 ± 2	1.452 ± 0.017
298.15 K, x2 = 0.5	743.89 ± 2	1.124 ± 0.013
298.15 K, x2 = 0.6001	731.33 ± 2	0.899 ± 0.011
298.15 K, x2 = 0.7001	719.63 ± 2	0.737 ± 0.009
298.15 K, x2 = 0.7997	708.41 ± 2	0.621 ± 0.007
298.15 K, x2 = 0.8998	697.73 ± 2	0.536 ± 0.006
298.15 K, x2 = 0.9199	695.61 ± 2	–
298.15 K, x2 = 0.9396	693.66 ± 2	–
298.15 K, x2 = 0.9595	691.69 ± 2	–
303.15 K, x2 = 0	811.71 ± 2	3.944 ± 0.048
303.15 K, x2 = 0.1001	796.32 ± 2	2.958 ± 0.036
303.15 K, x2 = 0.2	781.24 ± 2	2.236 ± 0.027
303.15 K, x2 = 0.3001	766.82 ± 2	1.728 ± 0.021
303.15 K, x2 = 0.4	753.03 ± 2	1.306 ± 0.016
303.15 K, x2 = 0.5	739.93 ± 2	1.051 ± 0.013
303.15 K, x2 = 0.6001	727.33 ± 2	0.829 ± 0.01
303.15 K, x2 = 0.7001	715.58 ± 2	0.688 ± 0.008
303.15 K, x2 = 0.7997	704.3 ± 2	0.582 ± 0.007
303.15 K, x2 = 0.8998	693.58 ± 2	0.504 ± 0.006
303.15 K, x2 = 0.9199	691.45 ± 2	–
303.15 K, x2 = 0.9396	689.52 ± 2	–
303.15 K, x2 = 0.9595	687.54 ± 2	–
308.15 K, x2 = 0	808.09 ± 2	3.414 ± 0.042
308.15 K, x2 = 0.1001	792.61 ± 2	2.592 ± 0.032
308.15 K, x2 = 0.2	777.46 ± 2	1.965 ± 0.024
308.15 K, x2 = 0.3001	762.96 ± 2	1.536 ± 0.018
308.15 K, x2 = 0.4	749.11 ± 2	1.18 ± 0.014
308.15 K, x2 = 0.5	735.95 ± 2	0.941 ± 0.011
308.15 K, x2 = 0.6001	723.29 ± 2	0.775 ± 0.009
308.15 K, x2 = 0.7001	711.48 ± 2	0.643 ± 0.008
308.15 K, x2 = 0.7997	700.16 ± 2	0.546 ± 0.007
308.15 K, x2 = 0.8998	689.39 ± 2	0.476 ± 0.006
308.15 K, x2 = 0.9199	687.26 ± 2	–
308.15 K, x2 = 0.9396	685.32 ± 2	–
308.15 K, x2 = 0.9595	683.35 ± 2	–
313.15 K, x2 = 0	804.43 ± 2	2.96 ± 0.036
313.15 K, x2 = 0.1001	788.88 ± 2	2.275 ± 0.028
313.15 K, x2 = 0.2	773.65 ± 2	1.745 ± 0.021
313.15 K, x2 = 0.3001	759.07 ± 2	1.361 ± 0.016
313.15 K, x2 = 0.4	745.15 ± 2	1.071 ± 0.013
313.15 K, x2 = 0.5	731.93 ± 2	0.861 ± 0.01
313.15 K, x2 = 0.6001	719.21 ± 2	0.721 ± 0.009
313.15 K, x2 = 0.7001	707.36 ± 2	0.596 ± 0.007
313.15 K, x2 = 0.7997	695.98 ± 2	0.512 ± 0.006
313.15 K, x2 = 0.8998	685.18 ± 2	0.449 ± 0.005
313.15 K, x2 = 0.9199	683.03 ± 2	–
313.15 K, x2 = 0.9396	681.09 ± 2	–
313.15 K, x2 = 0.9595	679.12 ± 2	–
318.15 K, x2 = 0	800.75 ± 2	2.581 ± 0.032
318.15 K, x2 = 0.1001	785.1 ± 2	1.997 ± 0.024
318.15 K, x2 = 0.2	769.8 ± 2	1.577 ± 0.019
318.15 K, x2 = 0.3001	755.15 ± 2	1.23 ± 0.015
318.15 K, x2 = 0.4	741.15 ± 2	0.976 ± 0.012
318.15 K, x2 = 0.5	727.88 ± 2	0.807 ± 0.01
318.15 K, x2 = 0.6001	715.1 ± 2	0.658 ± 0.008
318.15 K, x2 = 0.7001	703.19 ± 2	0.559 ± 0.007
318.15 K, x2 = 0.7997	691.77 ± 2	0.483 ± 0.006
318.15 K, x2 = 0.8998	680.92 ± 2	0.424 ± 0.005
318.15 K, x2 = 0.9199	678.78 ± 2	–
318.15 K, x2 = 0.9396	676.83 ± 2	–
318.15 K, x2 = 0.9595	674.86 ± 2	–
323.15 K, x2 = 0	797.02 ± 2	2.251 ± 0.028
323.15 K, x2 = 0.1001	781.29 ± 2	1.778 ± 0.022
323.15 K, x2 = 0.2	765.91 ± 2	1.391 ± 0.017
323.15 K, x2 = 0.3001	751.18 ± 2	1.113 ± 0.013
323.15 K, x2 = 0.4	737.12 ± 2	0.894 ± 0.011
323.15 K, x2 = 0.5	723.78 ± 2	0.747 ± 0.009
323.15 K, x2 = 0.6001	710.95 ± 2	0.623 ± 0.007
323.15 K, x2 = 0.7001	698.99 ± 2	0.523 ± 0.006
323.15 K, x2 = 0.7997	687.52 ± 2	0.455 ± 0.006
323.15 K, x2 = 0.8998	676.63 ± 2	0.402 ± 0.005
323.15 K, x2 = 0.9199	674.48 ± 2	–
323.15 K, x2 = 0.9396	672.54 ± 2	–
323.15 K, x2 = 0.9595	670.56 ± 2	–

CCCCCO [pentan-1-ol] + CC(C)CC(C)(C)C
Settings	mass density [kg/m3]	viscosity [mPa·s]
298.15 K, x2 = 0	810.59 ± 2	3.458 ± 0.042
298.15 K, x2 = 0.1004	794.33 ± 2	2.615 ± 0.032
298.15 K, x2 = 0.2003	778.35 ± 2	1.984 ± 0.024
298.15 K, x2 = 0.3	763.77 ± 2	1.525 ± 0.018
298.15 K, x2 = 0.4	749.96 ± 2	1.189 ± 0.014
298.15 K, x2 = 0.5	737.18 ± 2	0.948 ± 0.011
298.15 K, x2 = 0.5999	725.64 ± 2	0.785 ± 0.009
298.15 K, x2 = 0.6998	714.97 ± 2	0.663 ± 0.008
298.15 K, x2 = 0.7999	705.08 ± 2	0.579 ± 0.007
298.15 K, x2 = 0.8996	696.03 ± 2	0.518 ± 0.006
303.15 K, x2 = 0	807.89 ± 2	3.007 ± 0.037
303.15 K, x2 = 0.1004	790.55 ± 2	2.291 ± 0.028
303.15 K, x2 = 0.2003	774.49 ± 2	1.758 ± 0.021
303.15 K, x2 = 0.3	759.83 ± 2	1.365 ± 0.016
303.15 K, x2 = 0.4	745.97 ± 2	1.076 ± 0.013
303.15 K, x2 = 0.5	733.13 ± 2	0.867 ± 0.01
303.15 K, x2 = 0.5999	721.55 ± 2	0.724 ± 0.009
303.15 K, x2 = 0.6998	710.84 ± 2	0.623 ± 0.007
303.15 K, x2 = 0.7999	700.93 ± 2	0.552 ± 0.007
303.15 K, x2 = 0.8996	691.85 ± 2	0.49 ± 0.006
308.15 K, x2 = 0	804.16 ± 2	2.625 ± 0.032
308.15 K, x2 = 0.1004	786.73 ± 2	2.038 ± 0.025
308.15 K, x2 = 0.2003	770.6 ± 2	1.562 ± 0.019
308.15 K, x2 = 0.3	755.86 ± 2	1.225 ± 0.015
308.15 K, x2 = 0.4	741.94 ± 2	0.977 ± 0.012
308.15 K, x2 = 0.5	729.05 ± 2	0.797 ± 0.01
308.15 K, x2 = 0.5999	717.43 ± 2	0.671 ± 0.008
308.15 K, x2 = 0.6998	706.68 ± 2	0.579 ± 0.007
308.15 K, x2 = 0.7999	696.74 ± 2	0.513 ± 0.006
308.15 K, x2 = 0.8996	687.64 ± 2	0.466 ± 0.006
313.15 K, x2 = 0	800.4 ± 2	2.317 ± 0.029
313.15 K, x2 = 0.1004	782.88 ± 2	1.806 ± 0.022
313.15 K, x2 = 0.2003	766.66 ± 2	1.403 ± 0.017
313.15 K, x2 = 0.3	751.85 ± 2	1.105 ± 0.013
313.15 K, x2 = 0.4	737.87 ± 2	0.89 ± 0.011
313.15 K, x2 = 0.5	724.94 ± 2	0.734 ± 0.009
313.15 K, x2 = 0.5999	713.27 ± 2	0.624 ± 0.008
313.15 K, x2 = 0.6998	702.49 ± 2	0.549 ± 0.007
313.15 K, x2 = 0.7999	692.51 ± 2	0.482 ± 0.006
313.15 K, x2 = 0.8996	683.4 ± 2	0.438 ± 0.005
318.15 K, x2 = 0	796.59 ± 2	2.029 ± 0.025
318.15 K, x2 = 0.1004	778.99 ± 2	1.618 ± 0.02
318.15 K, x2 = 0.2003	762.69 ± 2	1.255 ± 0.015
318.15 K, x2 = 0.3	747.8 ± 2	1.001 ± 0.012
318.15 K, x2 = 0.4	733.76 ± 2	0.815 ± 0.01
318.15 K, x2 = 0.5	720.78 ± 2	0.679 ± 0.008
318.15 K, x2 = 0.5999	709.06 ± 2	0.582 ± 0.007
318.15 K, x2 = 0.6998	698.25 ± 2	0.518 ± 0.006
318.15 K, x2 = 0.7999	688.24 ± 2	0.454 ± 0.006
318.15 K, x2 = 0.8996	679.11 ± 2	0.422 ± 0.005
323.15 K, x2 = 0	792.75 ± 2	1.795 ± 0.022
323.15 K, x2 = 0.1004	775.05 ± 2	1.443 ± 0.018
323.15 K, x2 = 0.2003	758.67 ± 2	1.131 ± 0.014
323.15 K, x2 = 0.3	743.71 ± 2	0.914 ± 0.011
323.15 K, x2 = 0.4	729.61 ± 2	0.749 ± 0.009
323.15 K, x2 = 0.5	716.58 ± 2	0.63 ± 0.008
323.15 K, x2 = 0.5999	704.82 ± 2	0.548 ± 0.007
323.15 K, x2 = 0.6998	693.98 ± 2	0.486 ± 0.006
323.15 K, x2 = 0.7999	683.93 ± 2	0.428 ± 0.005
323.15 K, x2 = 0.8996	674.79 ± 2	0.393 ± 0.005
